pIC50: −log10 of the molar value.
What was measured:
OTUD3 = biological target: T1, OTUD3 (Homo sapiens, UniProt Q5T2D3); assay: In vitro DUB selectivity panel, ubiquitin substrate cleavage assay; format: biochemical
T1 construct: OTUD3 FL (1-398) GST, cleaved Q5T2D3; GST (cleaved yes); purchased Ubiquigent DUBscan Kit 67-0006-001
T1 sequence (Q5T2D3 1-398): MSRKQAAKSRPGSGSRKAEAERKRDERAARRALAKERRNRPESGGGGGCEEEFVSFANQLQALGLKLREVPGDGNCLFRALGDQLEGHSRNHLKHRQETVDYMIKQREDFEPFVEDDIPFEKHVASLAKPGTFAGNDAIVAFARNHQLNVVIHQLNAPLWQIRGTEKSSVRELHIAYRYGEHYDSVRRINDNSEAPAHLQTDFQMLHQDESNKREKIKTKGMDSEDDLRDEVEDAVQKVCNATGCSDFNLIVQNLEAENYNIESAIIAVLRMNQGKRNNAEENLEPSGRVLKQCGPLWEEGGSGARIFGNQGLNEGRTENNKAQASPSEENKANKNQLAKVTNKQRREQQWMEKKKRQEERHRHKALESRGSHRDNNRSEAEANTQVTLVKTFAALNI
Description: (§1) After having determined the (1S,2S) configuration as the preferred stereoisomer, we turned our attention to the aromatic ring substituents to further improve the compound potency. Applying the same chemo-enzymatic strategy described above, a panel of aryl substituted trans (1S,2S) cyclopropane compounds 7–10 were generated having a methyl (7–9) or fluorine (10) substituent at different positions on the aromatic ring. The compounds were tested for their OTUB2 inhibitory potency using the assay as described above (Table 1, Figure S1A). […] Since these compounds are all covalent, irreversible inhibitors,[15] the IC50 depends on the incubation time. To get a better estimate of their respective inhibitory capacity, independent of incubation time, we determined the kinact/KI values of compounds 5–10 by pre-mixing the compounds with the substrate before adding OTUB2. […] The in vitro selectivity of LN5P45 for OTUB2 was assessed using a panel containing six DUBs from the OTU family, including its closest family members OTUB1, OTUD1, OTUD2, OTUD3, OTUD6B, and Cezanne, and two DUBs from outside this family, UCHL1 and USP16 (Figure S2, Table S1).
(§2) The assays were performed in “nonbinding surface flat bottom low flange” black 384-well plates (Corning 3820) at room temperature in a buffer containing 50 mM Tris·HCl, 100 mM NaCl, pH 7.6, 2.0 mM cysteine, 1 mg/mL 3-[(3-cholamidopropyl)-dimethylammonio]propanesulfonic acid (CHAPS), and 0.5 mg/mL γ-globulins from bovine blood (BGG). All dispensing steps involving buffered solutions were performed on a Biotek MultiFlowFX dispenser. […] The compounds were dissolved in 10 mM and 1 mM DMSO stock solutions, and appropriate volumes were transferred to the empty plates using a Labcyte Echo acoustic dispenser to obtain a 12-point serial dilution. […] A 3 μL portion of the substrate (UbRhoMP, or K48-linked diUb FRET pair[35] for OTUB1) was added (final concentration 500 nM), and the increase in fluorescence over time was recorded using a BMG Labtech PHERAstar plate reader (excitation 487 nm, emission 535 nm).

UCHL1 = biological target: T2, UCHL1 (Homo sapiens, UniProt P09936); assay: as above; format: biochemical; conditions: marginal inhibition
T2 construct: UCHL1 FL (1-223); made in house
T2 sequence (P09936 1-223): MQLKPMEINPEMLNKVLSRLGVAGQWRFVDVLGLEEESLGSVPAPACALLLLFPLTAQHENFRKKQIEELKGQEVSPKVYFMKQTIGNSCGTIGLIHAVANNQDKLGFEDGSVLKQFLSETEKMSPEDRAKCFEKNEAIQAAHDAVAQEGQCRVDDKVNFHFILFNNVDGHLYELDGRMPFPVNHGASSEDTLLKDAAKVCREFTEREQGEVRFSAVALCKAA
Description: as §1, §2

USP16 = biological target: T3, USP16 (Homo sapiens, UniProt Q9Y5T5); assay: as above; format: biochemical; conditions: marginal inhibition
T3 construct: USP16 FL (22-823); His-tag (N); made in house
T3 sequence (Q9Y5T5 22-823): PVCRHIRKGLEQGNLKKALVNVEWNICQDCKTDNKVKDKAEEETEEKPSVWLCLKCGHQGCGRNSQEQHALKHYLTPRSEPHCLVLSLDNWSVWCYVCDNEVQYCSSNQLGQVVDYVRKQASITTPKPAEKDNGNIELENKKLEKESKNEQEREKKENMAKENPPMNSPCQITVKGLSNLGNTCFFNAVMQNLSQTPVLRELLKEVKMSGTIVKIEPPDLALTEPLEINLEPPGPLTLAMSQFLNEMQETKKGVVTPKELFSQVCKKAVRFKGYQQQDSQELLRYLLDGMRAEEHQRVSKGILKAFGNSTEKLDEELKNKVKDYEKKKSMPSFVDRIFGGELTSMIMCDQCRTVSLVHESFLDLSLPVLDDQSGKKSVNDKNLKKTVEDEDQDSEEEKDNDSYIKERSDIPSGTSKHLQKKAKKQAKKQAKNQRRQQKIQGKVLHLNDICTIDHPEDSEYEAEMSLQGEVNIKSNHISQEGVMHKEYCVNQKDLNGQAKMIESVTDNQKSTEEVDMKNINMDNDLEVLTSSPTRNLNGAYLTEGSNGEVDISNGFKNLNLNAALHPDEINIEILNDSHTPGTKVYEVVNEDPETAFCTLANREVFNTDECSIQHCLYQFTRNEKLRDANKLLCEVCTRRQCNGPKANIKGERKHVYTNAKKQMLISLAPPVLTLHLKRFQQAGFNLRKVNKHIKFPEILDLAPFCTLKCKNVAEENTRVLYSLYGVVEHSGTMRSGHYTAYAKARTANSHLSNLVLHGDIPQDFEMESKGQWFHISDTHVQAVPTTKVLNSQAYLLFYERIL
Description: as §1, §2

[1] = system: OTUB1, OTUD1, OTUD2, OTUD3, OTUD6B, Cezanne, UCHL1 and USP16; assay: In vitro DUB selectivity panel, ubiquitin substrate cleavage assay (whole panel); format: biochemical, human; conditions: at concentrations up to 150 μM
Description: as §1, with “S1). […]” for “S1).”

[2] = system: reactive cysteine sites in HeLa cells expressing GFP or GFP-OTUB2; assay: SLC-ABPP profiling of LN5P45-reactive cysteines with DBIA probe; format: cell-based, Homo sapiens; conditions: 10 μM for 4 h, 10,670 cysteine peptides detected
Description: Reduced disulfide bonds were alkylated using 20 mM iodoacetamide for 30 min in the dark at RT.

pIC50 (OTUD3): 4.25
pIC50 (UCHL1): < 4.00
pIC50 (USP16): < 4.00
Structure (SMILES): Cc1cccc([C@H]2C[C@@H]2C(=O)NNC(=O)CCl)c1 [Compound 8]
Inhibition of most DUBs of the panel [1]: not inhibited
Number of proteins not involved in ubiquitination with inhibited DBIA probe binding [2]: seven
